± gives the expanded uncertainty stated by the source.
Experiment: xn = mol fraction of the nth substance listed
Settings: 298 K, Liquid

ClCCCCCl [1,4-dichlorobutane] + CN(C)C=O
mass density [kg/m3]
Settings	x2 = 0.1003	x2 = 0.1923	x2 = 0.2994	x2 = 0.4006	x2 = 0.5022	x2 = 0.6004	x2 = 0.7029	x2 = 0.7943	x2 = 0.9006
100 kPa	1119 ± 4.3	1105.1 ± 4.3	1087.9 ± 4.2	1071.2 ± 4.3	1052.4 ± 4.4	1034 ± 4.5	1013.1 ± 4.7	993.4 ± 4.9	968.9 ± 5.1
500 kPa	1119.3 ± 4.4	1105.4 ± 4.3	1088.2 ± 4.2	1071.5 ± 4.3	1052.7 ± 4.4	1034.2 ± 4.5	1013.4 ± 4.7	993.7 ± 4.9	969.2 ± 5.1
1000 kPa	1119.7 ± 4.4	1105.8 ± 4.3	1088.6 ± 4.2	1071.8 ± 4.3	1053.1 ± 4.4	1034.6 ± 4.5	1013.8 ± 4.7	994 ± 4.9	969.6 ± 5.1
1500 kPa	1120.1 ± 4.4	1106.1 ± 4.3	1089 ± 4.2	1072.2 ± 4.3	1053.5 ± 4.4	1035 ± 4.5	1014.1 ± 4.7	994.3 ± 5	969.8 ± 5
2000 kPa	1120.4 ± 4.4	1106.5 ± 4.3	1089.3 ± 4.2	1072.6 ± 4.3	1053.8 ± 4.4	1035.3 ± 4.5	1014.4 ± 4.7	994.7 ± 4.9	970.2 ± 5.1
2500 kPa	1120.8 ± 4.4	1106.9 ± 4.3	1089.7 ± 4.2	1072.9 ± 4.3	1054.2 ± 4.4	1035.7 ± 4.5	1014.7 ± 4.7	995 ± 4.9	970.5 ± 5.1
3000 kPa	1121.2 ± 4.4	1107.3 ± 4.3	1090.1 ± 4.2	1073.3 ± 4.3	1054.5 ± 4.4	1036 ± 4.5	1015.1 ± 4.7	995.4 ± 5	970.7 ± 5.1
3500 kPa	1121.6 ± 4.4	1107.7 ± 4.3	1090.4 ± 4.3	1073.6 ± 4.3	1054.8 ± 4.4	1036.3 ± 4.5	1015.4 ± 4.7	995.7 ± 5	971.1 ± 5.1
4000 kPa	1122 ± 4.4	1108.1 ± 4.3	1090.8 ± 4.3	1074 ± 4.3	1055.2 ± 4.4	1036.7 ± 4.5	1015.8 ± 4.7	996 ± 5	971.4 ± 5.1
4500 kPa	1122.3 ± 4.5	1108.4 ± 4.3	1091.2 ± 4.3	1074.4 ± 4.3	1055.5 ± 4.4	1037 ± 4.5	1016.1 ± 4.7	996.4 ± 5	971.8 ± 5.1
5000 kPa	1122.7 ± 4.5	1108.8 ± 4.3	1091.6 ± 4.3	1074.8 ± 4.3	1055.9 ± 4.4	1037.4 ± 4.5	1016.4 ± 4.7	996.7 ± 5	972.1 ± 5.1
5500 kPa	1123.1 ± 4.5	1109.2 ± 4.4	1091.9 ± 4.3	1075.1 ± 4.4	1056.2 ± 4.4	1037.7 ± 4.5	1016.8 ± 4.7	996.9 ± 5	972.3 ± 5.1
6000 kPa	1123.4 ± 4.5	1109.5 ± 4.4	1092.3 ± 4.3	1075.4 ± 4.4	1056.6 ± 4.4	1038.1 ± 4.5	1017 ± 4.7	997.3 ± 5	972.6 ± 5.1
6500 kPa	1123.8 ± 4.5	1109.9 ± 4.4	1092.6 ± 4.3	1075.9 ± 4.4	1057 ± 4.5	1038.4 ± 4.5	1017.5 ± 4.7	997.6 ± 5	972.9 ± 5.1
7000 kPa	1124.2 ± 4.5	1110.3 ± 4.4	1093 ± 4.3	1076.2 ± 4.4	1057.2 ± 4.4	1038.8 ± 4.5	1017.8 ± 4.7	997.9 ± 5	973.3 ± 5.1
7500 kPa	1124.6 ± 4.5	1110.7 ± 4.4	1093.4 ± 4.3	1076.6 ± 4.4	1057.6 ± 4.5	1039.1 ± 4.6	1018 ± 4.7	998.3 ± 5	973.6 ± 5.1
8000 kPa	1124.9 ± 4.5	1111 ± 4.4	1093.7 ± 4.3	1076.9 ± 4.4	1057.9 ± 4.5	1039.4 ± 4.5	1018.4 ± 4.7	998.5 ± 5	973.9 ± 5.1
8500 kPa	1125.2 ± 4.5	1111.4 ± 4.4	1094 ± 4.3	1077.2 ± 4.4	1058.3 ± 4.5	1039.7 ± 4.6	1018.7 ± 4.7	998.9 ± 5	974.2 ± 5.1
9000 kPa	1125.6 ± 4.5	1111.8 ± 4.4	1094.4 ± 4.3	1077.6 ± 4.4	1058.7 ± 4.5	1040.1 ± 4.6	1019.1 ± 4.7	999.2 ± 5	974.5 ± 5.1
9500 kPa	1126 ± 4.6	1112.2 ± 4.4	1094.8 ± 4.3	1078 ± 4.4	1059 ± 4.5	1040.4 ± 4.6	1019.4 ± 4.7	999.5 ± 5	974.8 ± 5.1
10000 kPa	1126.4 ± 4.6	1112.6 ± 4.5	1095.2 ± 4.4	1078.4 ± 4.4	1059.3 ± 4.5	1040.8 ± 4.6	1019.7 ± 4.7	999.9 ± 5	975.2 ± 5.1
10500 kPa	1126.8 ± 4.6	1112.9 ± 4.5	1095.5 ± 4.4	1078.7 ± 4.4	1059.7 ± 4.5	1041.1 ± 4.6	1020.1 ± 4.7	1000.2 ± 5	975.5 ± 5.1
10900 kPa	1127.1 ± 4.6	–	–	–	–	–	–	–	–
11000 kPa	–	1113.3 ± 4.5	1095.9 ± 4.4	1079.1 ± 4.4	1060 ± 4.5	1041.5 ± 4.6	1020.4 ± 4.4	–	975.8 ± 5.9
11500 kPa	1127.4 ± 4.6	1113.6 ± 4.5	1096.2 ± 4.4	1079.4 ± 4.4	1060.3 ± 4.5	1041.8 ± 4.6	1020.7 ± 4.7	1000.8 ± 5	976.1 ± 5.1
11900 kPa	–	1113.9 ± 4.5	–	–	1060.6 ± 4.5	–	–	–	–
12000 kPa	1127.8 ± 4.2	–	1096.6 ± 4.4	1079.8 ± 4.4	–	1042.1 ± 4.6	1021.1 ± 4.7	1001.2 ± 5	976.4 ± 5.1
12500 kPa	1128.2 ± 4.6	1114.3 ± 4.5	1096.9 ± 4.4	1080.1 ± 4.4	1061 ± 4.5	1042.4 ± 4.6	1021.4 ± 4.7	1001.5 ± 5	976.7 ± 5.1
12900 kPa	–	–	–	–	–	–	1021.7 ± 4.8	–	–
13000 kPa	1128.5 ± 4.7	1114.7 ± 4.5	1097.3 ± 4.4	1080.4 ± 4.5	1061.3 ± 4.5	1042.7 ± 4.6	–	1001.7 ± 5	976.9 ± 5.1
13500 kPa	1128.9 ± 4.7	1115 ± 4.5	1097.7 ± 4.4	1080.8 ± 4.5	1061.6 ± 4.5	1043.1 ± 4.6	1022 ± 4.8	1002.1 ± 5	977.2 ± 5.1
13900 kPa	–	1115.3 ± 4.5	–	–	1062 ± 4.5	–	–	–	–
14000 kPa	1129.2 ± 4.2	–	1097.9 ± 4.4	1081.1 ± 4.5	–	1043.4 ± 4.6	1022.4 ± 4.8	1002.3 ± 5	977.5 ± 5.1
14400 kPa	–	–	–	1081.4 ± 4.5	–	–	1022.6 ± 4.8	–	–
14500 kPa	1129.5 ± 4.7	1115.7 ± 4.6	1098.2 ± 4.4	–	1062.3 ± 4.5	1043.7 ± 4.6	–	1002.7 ± 5	977.8 ± 5.1
15000 kPa	1129.9 ± 4.7	1116 ± 4.6	1098.6 ± 4.4	1081.8 ± 4.5	1062.6 ± 4.5	1044 ± 4.6	1023 ± 4.8	1003 ± 5	978.1 ± 5.1
15500 kPa	1130.3 ± 4.7	1116.4 ± 4.6	1099 ± 4.5	1082.1 ± 4.5	1063 ± 4.5	1044.4 ± 4.6	1023.2 ± 4.8	1003.3 ± 5	978.4 ± 5.1
16000 kPa	1130.6 ± 4.7	1116.8 ± 4.6	1099.2 ± 4.5	1082.5 ± 4.5	1063.3 ± 4.6	1044.6 ± 4.6	1023.5 ± 4.8	1003.5 ± 5	978.7 ± 5.1
16500 kPa	1130.9 ± 4.7	1117.1 ± 4.6	1099.6 ± 4.5	1082.8 ± 4.5	1063.6 ± 4.5	1045 ± 4.6	1023.8 ± 4.8	1003.8 ± 5	978.9 ± 5.1
16900 kPa	–	1117.4 ± 4.6	–	–	–	–	1024.1 ± 4.8	1004.1 ± 5	–
17000 kPa	1131.3 ± 4.3	–	1100 ± 4.5	1083.1 ± 4.5	1063.9 ± 4.6	1045.3 ± 4.6	–	–	979.3 ± 2.9
17500 kPa	1131.6 ± 4.8	1117.8 ± 4.6	1100.3 ± 4.5	1083.5 ± 4.5	1064.2 ± 4.6	1045.6 ± 4.6	1024.4 ± 4.8	1004.5 ± 5	979.5 ± 5.1
17900 kPa	–	–	–	–	1064.5 ± 4.6	–	–	–	–
18000 kPa	1132 ± 4.8	1118.1 ± 4.6	1100.6 ± 4.5	1083.8 ± 4.5	–	1045.9 ± 4.6	1024.7 ± 4.8	1004.9 ± 5	979.8 ± 5.2
18500 kPa	1132.3 ± 4.8	1118.4 ± 4.7	1100.9 ± 4.5	1084.2 ± 4.5	1065 ± 4.6	1046.3 ± 4.6	1025.1 ± 4.8	1005.1 ± 5	980 ± 5.2
19000 kPa	1132.8 ± 4.8	1118.8 ± 4.7	1101.4 ± 4.5	1084.5 ± 4.5	1065.3 ± 4.6	1046.6 ± 4.6	1025.4 ± 4.8	1005.5 ± 5	980.4 ± 5.2
19400 kPa	–	–	1101.7 ± 4.5	–	–	–	–	1005.7 ± 5	–
19500 kPa	1133.1 ± 4.9	1119.1 ± 4.7	–	1084.9 ± 4.6	1065.5 ± 4.6	1046.9 ± 4.6	1025.7 ± 4.8	–	980.7 ± 2.9
20000 kPa	1133.4 ± 4.9	1119.5 ± 4.7	–	1085.3 ± 4.6	1065.9 ± 4.6	1047.2 ± 4.6	1026.1 ± 4.8	1006.1 ± 5	981 ± 5.2
20100 kPa	–	–	1102.2 ± 4.5	–	–	–	–	–	–

From the NIST ThermoML archive (doi:10.1021/je700339f)
